Data as given in article PMC12863195 (2026).
Values belong to the compound of their own block, whether it stands above or below them.

Legend:
[1] = test system: Split Ade aptamer – 0nt (d1/t1+d2/t2) (DNA, aptamer) AGGGTGGTGGCGTGCGGAGGAAGGT/ACCTGGGGGAGTATCGCCTAGGTTGGGT; assay: ITC; conditions: Mg2+ 40 mM (MgCl2); 40 mM Tris acetate pH 7.9, 25 °C; one set of sites fit
[2] = test system: Split Ade aptamer – 3nt (Ga/Ha; d1/c/t1+d2/c'/t2) (DNA, aptamer) AGGGTGGTGGCGAACTGCGGAGGAAGGT/ACCTGGGGGAGTATGATCGCCTAGGTTGGGT; assay: ITC; conditions: Mg2+ 40 mM (MgCl2); 40 mM Tris acetate pH 7.9, 25 °C; one set of sites fit
[3] = test system: Na/Ta/Pa (DNA, aptamer) ACCTGGGGGAGTATTAATACGACTCACTATAGGGTTCTCCTCTGCGTTGTTGTTTG/CAAACAACAACGCAGAGGAGAACCCTATAGTGAGTCG/TATTATGCGGAGGAAGGT; assay: transcription activation, F/Q strand displacement fluorescence; conditions: Mg2+ 20 mM (MgCl2); 1×RNAPol reaction buffer, 0.2 µM strands, 0.125-2 mM Ade, 33 °C
[4] = test system: R1 (MG RNA aptamer) (RNA, aptamer) GGAUCCCGACUGGCGAGAGCCAGGUAACGAAUGGAUCC; assay: fluorescence (ex 632 nm, em 650 nm); conditions: Mg2+ 20 mM (MgCl2); 1×RNAPol reaction buffer, 5 mM DTT, 2 µM MG, 35 °C, during transcription
[5] = test system: Intact Mel aptamer (DNA, aptamer) GCACACCGATGGCGGTCCTGTTTAGGGGGTGTGC; assay: ITC; conditions: Mg2+ 40 mM (MgCl2); 20 mM Tris acetate pH 7.9, 25 °C; one set of sites fit
[6] = test system: Split Mel aptamer – 0nt (DNA, aptamer) GCACACCGATGGCGGTCCTGT/TTAGGGGGTGTGC; assay: ITC; conditions: Mg2+ 40 mM (MgCl2); 20 mM Tris acetate pH 7.9, 25 °C; poorly defined fit (ΔH -335 ±751 kJ/mol)
[7] = test system: Split Mel aptamer – 4nt (DNA, aptamer) GCACACCGATGGCGGTCCTGTAGGT/ACCTTTAGGGGGTGTGC; assay: ITC; conditions: Mg2+ 40 mM (MgCl2); 20 mM Tris acetate pH 7.9, 25 °C; one set of sites fit
[8] = test system: Gm/Hm (DNA, aptamer) AGGGTGGTGGCGAAAGCACACCGATGGCGGTCCTGTAGGT/ACCTTTAGGGGGTGTGCAAACGCCTAGGTTGGGT; assay: thrombin coagulation inhibition, light scattering; conditions: 1 µM Gm/Hm, 5 nM thrombin, 10 mg/ml fibrinogen, 10-1000 µM Mel, 25 °C
[9] = test system: Nm/Tm/Pm (DNA, aptamer) TAATACGACTCACTATAGGGATCCCGACTGGCGAGAGCCAGGTAACGAATGGATCC/GGATCCATTCGTTACCTGGCTCTCGCCAGTCGGGATCCCTATAGTGAGTCTTAGGGGGTGTGC/GCACACCGATGGCGGTCCTGTGTATTA; assay: transcription activation, MG aptamer fluorescence; conditions: Mg2+ 20 mM (MgCl2); 1×RNAPol reaction buffer, 0.2 µM strands, 0.125-2 mM Mel, 35 °C
[10] = test system: Dm/Em (DNA, aptamer) CTGTTCAGCGATGCACACCGATGGCGGTCCTGTAGGT/ACCTTTAGGGGGTGTGCCACCCATGTTCCTGA; assay: DNAzyme cleavage of FAM/BHQ1 substrate, fluorescence; conditions: Mg2+ 40 mM (MgCl2); apparent; 20 mM Tris acetate pH 7.9, 1 µM each strand, 1 µM substrate S, BSA
[11] = test system: Split Ade aptamer – 3nt (Ga/Ha; d1/c/t1+d2/c'/t2) (DNA, aptamer) AGGGTGGTGGCGAACTGCGGAGGAAGGT/ACCTGGGGGAGTATGATCGCCTAGGTTGGGT; assay: stated; ADA-driven loss of thrombin inhibition; conditions: adenosine 1.25-1.8 mM converted by ADA

Kd [1]: 14.1 ± 1.3 µM
Kd [2]: 7.28 ± 0.82 µM
binding [3]: yes
SMILES: Nc1ncnc2c1ncn2[C@@H]1O[C@H](CO)[C@@H](O)[C@H]1O

binding [4]: yes
SMILES: CN(C)c1ccc(C(=C2C=CC(=[N+](C)C)C=C2)c2ccccc2)cc1

Kd [5]: 0.800 ± 0.139 µM
Kd [6]: 11.1 ± 2.09 µM
Kd [7]: 0.890 ± 0.123 µM
binding [8]: yes
binding [9]: yes
K0.5 [10]: 162 ± 4.8 µM
SMILES: Nc1nc(N)nc(N)n1

binding [11]: no
SMILES: O=c1[nH]cnc2c1ncn2[C@@H]1O[C@H](CO)[C@@H](O)[C@H]1O
